Data: patent US20090247520A1, “INHIBITORS OF ANTIGEN RECEPTOR-INDUCED NF-kappa B ACTIVATION” (The Burnham Institute for Medical Research, priority 2008, published 2009)
Like-named read-outs stand apart in the source and are kept apart here.

Legend:
[1] = system: phosphorylation of CARMA1; assay: PMA-induced CARMA1 phosphorylation in HEK293 cells (immunoblot); format: cell-based; conditions: CID-2858522 4 μM
Procedure: FIG. 7. CID-285852 inhibits IKKβ phosphorylation induced by PKC activators. (A) HEK293 cells were cultured in 0.5% FBS medium for 24 h and then treated with CID-2858522 (4 μM) or PKC inhibitor, Bisindolylmaleimide I (1 μM) for 2 hrs followed by PMA/Ionomycin (10 ng/mL; 5 ng/mL) for 2 h. Cell lysates were subjected to immunoprecipitation using anti-CARMA1 antibody and analyzed by immunoblotting with anti-phospho-CARMA1 antibody or anti-CARMA1 antibody. (B-E) HEK293 cells were transfected with plasmids encoding myc-CARMA1 in combination with plasmids encoding various other proteins including Caspase-8 (cys287ala) (B), HA-IKK-γ (C), HA-TAK1 (D), and TRAF6 (E). After 36 h. cells were cultured in 0.5% FBS medium for 12 h and then treated with CID-2858522 (4 μM) or Bisindolylmaleimide I (1 μM) for 2 hrs, followed by PMA/Ionomycin treatment (10 ng/mL; 5 ng/mL) for 2 hrs. Cell lysates were immunoprecipated using anti-myc antibody and analyzed by immunoblotting using anti-Caspase8 (B), anti-HA (C,D), or anti-TRAF6 (E) antibodies. […] Cell lysates were normalized for protein content and analyzed by immunoblotting using anti-FLIP and anti-alpha-tubulin antibodies. […] Cell lysates were immunoprecipitated using anti-IKK-β and analyzed by immunoblotting using anti-phospho-IKK-β antibody or anti-IKK-β antibody (as loading control). […]

[2] = system: PMA/Ionomycin-stimulated IL-8 production; assay: PMA/Ionomycin-stimulated IL-8 production by HEK293 reporter cells (ELISA); format: cell-based, human
Procedure: (§1) (A) Structures of two hit compounds, CID-2858522 (left) and CID-2998237 (right) are shown; (B, C) 293-NF-κB-luc cells were pretreated for 2 hrs with various concentration of either CID-2858522 (B) or CID-29982387 (C) and then stimulated with TNF (10 ng/mL) or PMA/lonomycin (10 ng/mL; 5 ng/mL) for 16 h. Luciferase activity was measured and data were expressed as a percentage relative to control treatment with DMSO only (mean±SD; n=3). (D) 293-NF-κB-luc cells were pretreated for 2 h with various concentrations of CID-2858522 or CID-2998237, then stimulated with PMA/lonomycin for 16 h. IL-8 release into the medium was measured, expressing data as a percentage relative to control cultures treated with DMSO (mean±SD; n=3). (E) 293-NF-κB-luc cells were pretreated with CID-2858522 and then stimulated with PDBu for 16 h, IL-8 production and NF-κB luciferase activity were measured as above. (F) 293-NF-κB-luc cells were pretreated for 2 h with various concentrations of CID-2858522 or a PKC inhibitor (Bisindolylmaleimide I) at 1 μM followed by PMA/Ionomycin (10 ng/mL) stimulation for 2 h, then p65-DNA-binding activity was measured in nuclear extracts (10 μg protein), expressing data as fold-increase relative to unstimulated cells (mean±SD; n=3).
Lymphokine measurements. Human IL-2 or IL-8 levels in culture medium were measured by Enzyme-Linked Immunosorbent Assays (ELISAs), using BD OptEIA ELISAs (BD Biosciences, San Diego, Calif.), according to the manufacturer's protocol, using 96-well ELISA plates (BD Biosciences) and measuring absorbance within 30 minutes of initiating reactions using a SpectraMax 190 spectrophotometer (Molecular Devices).

[3] = system: HEK293 cells; assay: Cell viability assay (ATPlite), HEK293 cells; format: cell-based
Procedure: Cell viability assay. Cell viability was estimated based on cellular ATP levels, measured using ATPlite kit (Perkin Elmer). Cells at a density of 10^5/mL were seeded at 90 μL per well in 96-well white plates and cultured overnight. Compounds were added (5 μL in medium) to wells and cells were cultured for […], Finally, 50 μL ATPlite solution was added to each well and luminescence activity was read using a luminometer (LJL Biosystems, Sunnyvale, Calif.).

[4] = system: PDB-induced IL-8 production; assay: PDBu-induced IL-8 production by HEK293 cells; format: cell-based; conditions: Homo sapiens
Procedure: as §1
Lymphokine measurements. […]

For `Cc1cc2nc(NCCCO)n(CC(=O)c3cc(C(C)(C)C)c(O)c(C(C)(C)C)c3)c2cc1C` [Compound 1, 2-(2-(3-Hydroxypropylamino)-5,6-dimethyl-1H-benzo[d]imidazol-1-yl)-1-(3,5-di-tert-butyl-4-hydroxyphenyl)ethanone], the “effect on PMA-induced phosphorylation of CARMA1” value [1] was “no effect”, the IC50 ([2]; Homo sapiens) was under 100 nM and the “concentration at which maximum suppression of IL-8 production is achieved” value ([2]; PMA/Ionomycin) was 1 µM. For the same compound, the “concentrations not toxic to HEK293 cells” value [3] was at most 8 µM, the IC50 ([4]; read-out: IC50, PDB-induced IL-8 production) was 100 nM and the IC50 ([4]; read-out: IC50, PDBu-induced IL-8 secretion (cellular potency)) was under 100 nM.
